In PMC8772433 (Nature structural & molecular biology, 2021):

Target: SARS-CoV-2 ORF3a (3a), dimer (Severe acute respiratory syndrome coronavirus 2, UniProt P0DTC3)
Assay: patch-clamp current recording, excised inside-out patches of 3a-proteoliposomes
Type: biochemical
Settings: symmetric 150 mM KCl, pH 7.2, -80 mV, room temperature; soy PC proteoliposomes; flickery block at negative potentials

Chain of SARS-CoV-2 ORF3a (3a), dimer (P0DTC3 whole entry): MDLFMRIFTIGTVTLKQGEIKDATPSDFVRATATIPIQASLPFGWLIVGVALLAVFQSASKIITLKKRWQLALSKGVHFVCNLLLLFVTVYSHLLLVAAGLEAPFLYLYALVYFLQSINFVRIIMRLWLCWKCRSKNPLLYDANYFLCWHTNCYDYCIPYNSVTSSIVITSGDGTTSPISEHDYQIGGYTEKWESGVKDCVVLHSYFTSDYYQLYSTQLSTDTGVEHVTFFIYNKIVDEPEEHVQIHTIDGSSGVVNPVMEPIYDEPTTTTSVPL

Substance: Ruthenium Red
- IC50: 90 ± 10 µM
